Test results taken from patent US20230219886A1, “NOVEL SELENO-NSAID ANALOGS AND USES THEREOF” (THE PENN STATE RESEARCH FOUNDATION, priority 2020, published 2023).
Like-named read-outs stand apart in the source and are kept apart here.

Tests used:
H1299 (lung carcinoma) = assay: MTT cell viability assay, H1299; details: Homo sapiens, NCI-H1299, 48 h, read-out: cell viability
Experimental: (§1) Cell Culture Conditions. The cell lines were obtained from the American Type Culture Collection (ATCC). PANC-1 and Caco-2 cell lines were maintained in DMEM medium (Gibco); HT-29, HCT-116 and RKO cells were maintained in McCoy's 5A medium (Gibco); and DU-145 and H1299 cells were maintained in RPMI 1640 medium (Gibco), supplemented with 10% fetal bovine serum (FBS; Gibco) and 1% antibiotics (10.00 units/mL penicillin and 10.00 mg/mL streptomycin; Gibco). Cells were preserved in tissue culture flasks at 37° C. and 5% CO2. Culture medium was replaced every three days.
(§2) Cell Viability Assay. The effect of each compound on cell viability was tested using the MTT assay (81). Briefly, 9000 cells/well were grown in 96-well plates for 12 h. Then these cells were incubated with either DMSO (control) or nine different concentration between 0.01-50 μM of the test compounds for 24, 48, and 72 h. Three hours before the termination point, 20 μL of MTT were added to measure cellular viability. The resultant formazan crystals were dissolved in 50 μL of DMSO, and absorbance was measured at 570 nm and 630 nm wavelengths. IC50, GI50, TGI and LC50 values were calculated using OriginPro 8.5.1.
(§3) Evaluation of the antiproliferative activities of the novel molecules. […] These four cell lines were treated with each compound at three concentrations (5, 25 and 50 μM) for 48 h.

RKO CRC cells = assay: cells; details: Homo sapiens
Experimental: as §1, §2

CACO-2 CRC cells = assay: cells; details: Homo sapiens
Experimental: as §1, §2

HCT-116 CRC cells = assay: MTT cell viability assay, HCT-116; type: cell-based, human; details: Homo sapiens, read-out: IC50
Experimental: as §1, §2

HT-29 (CRC) = assay: MTT cell viability assay, HT-29; details: for GI50 / IC50 / viability at 5 µM / viability at 25 µM / viability at 50 µM: Homo sapiens; for viability at 5 µM / viability at 25 µM / viability at 50 µM: read-out: cell viability
Experimental: as §1, §2, §3

[1] = test system: PANC-1 (pancreatic carcinoma); assay: MTT cell viability assay, Panc-1; details: Homo sapiens, PANC-1, 48 h, read-out: cell viability
Experimental: as §1, §2, §3

[2] = test system: DU-145 (prostate carcinoma); assay: MTT cell viability assay, DU-145; details: Homo sapiens, DU-145, 48 h, read-out: cell viability
Experimental: as §1, §2, §3

In the case of `CC(=O)Oc1ccccc1C(=O)O` [ASA, aspirin, reference compound], the viability at 5 µM (H1299 (lung carcinoma)) is reported as 44.1 ± 4.4%, the viability at 25 µM (H1299 (lung carcinoma)) is reported as 51.1 ± 1.6% and the viability at 50 µM (H1299 (lung carcinoma)) is reported as 58.3 ± 3.6%. For the same compound, the IC50 (RKO CRC cells; 24 h) was greater than 50 µM, the IC50 (RKO CRC cells; 48 h) was greater than 50 µM and the IC50 (RKO CRC cells; 72 h) was greater than 50 µM. The IC50 (CACO-2 CRC cells; Caco-2, 24 h) was greater than 50 µM, the IC50 (CACO-2 CRC cells; Caco-2, 48 h) was greater than 50 µM and the IC50 (CACO-2 CRC cells; Caco-2, 72 h) was greater than 50 µM. For the same compound, the IC50 (HCT-116 CRC cells; HCT-116, 24 h) was greater than 50 µM, the IC50 (HCT-116 CRC cells; HCT-116, 48 h) was greater than 50 µM and the IC50 (HCT-116 CRC cells; HCT-116, 72 h) was greater than 50 µM. The TGI (HT-29 (CRC); HT-29, 24 h) was greater than 50 µM, the TGI (HT-29 (CRC); HT-29, 48 h) was greater than 50 µM and the TGI (HT-29 (CRC); HT-29, 72 h) was greater than 50 µM. It also gave a GI50 (HT-29 (CRC); HT-29, 24 h) greater than 50 µM, an IC50 (HT-29 (CRC); HT-29, 24 h) greater than 50 µM and a GI50 (HT-29 (CRC); HT-29, 48 h) greater than 50 µM. The IC50 (HT-29 (CRC); HT-29, 48 h) was greater than 50 µM, the viability at 5 µM (HT-29 (CRC); HT-29, 48 h) was 73.1 ± 13% and the viability at 25 µM (HT-29 (CRC); HT-29, 48 h) was 57.2 ± 11.3%. For the same compound, the viability at 50 µM (HT-29 (CRC); HT-29, 48 h) was 35.5 ± 7.7%, the GI50 (HT-29 (CRC); HT-29, 72 h) was greater than 50 µM and the IC50 (HT-29 (CRC); HT-29, 72 h) was greater than 50 µM. For the same compound, the viability at 5 µM [1] was 86.7 ± 5.4%, the viability at 25 µM [1] was 63.8 ± 3.1% and the viability at 50 µM [1] was 68.6 ± 5.1%. For the same compound, the viability at 5 µM [2] was 89.8 ± 11%, the viability at 25 µM [2] was 85.3 ± 25.1% and the viability at 50 µM [2] was 90.9 ± 24.6%.

In the case of `COc1ccc2c(c1)c(CC(=O)O)c(C)n2C(=O)c1ccc(Cl)cc1` [Inn, indomethacin, reference compound], the viability at 5 µM (H1299 (lung carcinoma)) is reported as 76 ± 23.7%, the viability at 25 µM (H1299 (lung carcinoma)) is reported as 70.4 ± 19.8% and the viability at 50 µM (H1299 (lung carcinoma)) is reported as 66.2 ± 14%. It also gave an IC50 (RKO CRC cells; 24 h) greater than 50 µM, an IC50 (RKO CRC cells; 48 h) greater than 50 µM and an IC50 (RKO CRC cells; 72 h) greater than 50 µM. It also gave an IC50 (CACO-2 CRC cells; Caco-2, 24 h) greater than 50 µM, an IC50 (CACO-2 CRC cells; Caco-2, 48 h) greater than 50 µM and an IC50 (CACO-2 CRC cells; Caco-2, 72 h) greater than 50 µM. The IC50 (HCT-116 CRC cells; HCT-116, 24 h) was greater than 50 µM, the IC50 (HCT-116 CRC cells; HCT-116, 48 h) was greater than 50 µM and the IC50 (HCT-116 CRC cells; HCT-116, 72 h) was greater than 50 µM. It also gave a TGI (HT-29 (CRC); HT-29, 24 h) greater than 50 µM, a TGI (HT-29 (CRC); HT-29, 48 h) greater than 50 µM and a TGI (HT-29 (CRC); HT-29, 72 h) greater than 50 µM. The GI50 (HT-29 (CRC); HT-29, 24 h) was greater than 50 µM, the IC50 (HT-29 (CRC); HT-29, 24 h) was greater than 50 µM and the GI50 (HT-29 (CRC); HT-29, 48 h) was greater than 50 µM. The IC50 (HT-29 (CRC); HT-29, 48 h) was greater than 50 µM, the viability at 5 µM (HT-29 (CRC); HT-29, 48 h) was 100 ± 8.4% and the viability at 25 µM (HT-29 (CRC); HT-29, 48 h) was 99.8 ± 14.2%. For the same compound, the viability at 50 µM (HT-29 (CRC); HT-29, 48 h) was 98.3 ± 13.4%, the GI50 (HT-29 (CRC); HT-29, 72 h) was greater than 50 µM and the IC50 (HT-29 (CRC); HT-29, 72 h) was greater than 50 µM. It also gave a viability at 5 µM [1] of 94.1 ± 8.3%, a viability at 25 µM [1] of 85.9 ± 10.5% and a viability at 50 µM [1] of 83.2 ± 6.3%. It also gave a viability at 5 µM [2] of 89.6 ± 12.3%, a viability at 25 µM [2] of 97.6 ± 21% and a viability at 50 µM [2] of 96.2 ± 18.5%.

`C[Se]C(=O)c1ccccc1Nc1cccc(C)c1C` [Compound 4a, Se-methyl 2-((2,3-dimethylphenyl)amino)benzoselenoate] showed a viability at 5 µM (H1299 (lung carcinoma)) of 98.7 ± 0.4%, a viability at 25 µM (H1299 (lung carcinoma)) of 99.4 ± 0.3% and a viability at 50 µM (H1299 (lung carcinoma)) of 100%. The viability at 5 µM (HT-29 (CRC); HT-29, 48 h) was 41.6 ± 6.4%, the viability at 25 µM (HT-29 (CRC); HT-29, 48 h) was 16.6 ± 4.7% and the viability at 50 µM (HT-29 (CRC); HT-29, 48 h) was 22.6 ± 0.7%. For the same compound, the viability at 5 µM [1] was 47.5 ± 5.9%, the viability at 25 µM [1] was 26.3 ± 3.9% and the viability at 50 µM [1] was 22.6 ± 3%. For the same compound, the viability at 5 µM [2] was 58 ± 14.1%, the viability at 25 µM [2] was 29.7 ± 10.9% and the viability at 50 µM [2] was 32 ± 6.5%.

`CC1=C(CC(=O)O)c2cc(F)ccc2/C1=C\c1ccc([S+](C)[O-])cc1` (stereo not drawn) [Sulin, sulindac, reference compound] showed a viability at 5 µM (H1299 (lung carcinoma)) of 87.5 ± 2.5%, a viability at 25 µM (H1299 (lung carcinoma)) of 72.5 ± 2.7% and a viability at 50 µM (H1299 (lung carcinoma)) of 84.9 ± 12.1%. For the same compound, the IC50 (RKO CRC cells; 24 h) was greater than 50 µM, the IC50 (RKO CRC cells; 48 h) was greater than 50 µM and the IC50 (RKO CRC cells; 72 h) was greater than 50 µM. It also gave an IC50 (CACO-2 CRC cells; Caco-2, 24 h) greater than 50 µM, an IC50 (CACO-2 CRC cells; Caco-2, 48 h) greater than 50 µM and an IC50 (CACO-2 CRC cells; Caco-2, 72 h) greater than 50 µM. The IC50 (HCT-116 CRC cells; HCT-116, 24 h) was greater than 50 µM, the IC50 (HCT-116 CRC cells; HCT-116, 48 h) was greater than 50 µM and the IC50 (HCT-116 CRC cells; HCT-116, 72 h) was greater than 50 µM. For the same compound, the TGI (HT-29 (CRC); HT-29, 24 h) was greater than 50 µM, the TGI (HT-29 (CRC); HT-29, 48 h) was greater than 50 µM and the TGI (HT-29 (CRC); HT-29, 72 h) was greater than 50 µM. It also gave a GI50 (HT-29 (CRC); HT-29, 24 h) greater than 50 µM, an IC50 (HT-29 (CRC); HT-29, 24 h) greater than 50 µM and a GI50 (HT-29 (CRC); HT-29, 48 h) greater than 50 µM. The IC50 (HT-29 (CRC); HT-29, 48 h) was greater than 50 µM, the viability at 5 µM (HT-29 (CRC); HT-29, 48 h) was 99.1 ± 2.4% and the viability at 25 µM (HT-29 (CRC); HT-29, 48 h) was 97.3 ± 2.1%. It also gave a viability at 50 µM (HT-29 (CRC); HT-29, 48 h) of 98.6 ± 3.1%, a GI50 (HT-29 (CRC); HT-29, 72 h) greater than 50 µM and an IC50 (HT-29 (CRC); HT-29, 72 h) greater than 50 µM. The viability at 5 µM [1] was 88 ± 22.5%, the viability at 25 µM [1] was 90.6 ± 28.9% and the viability at 50 µM [1] was 84.5 ± 32.7%. For the same compound, the viability at 5 µM [2] was 82.2 ± 1.9%, the viability at 25 µM [2] was 83.2 ± 7.2% and the viability at 50 µM [2] was 85.5 ± 3.7%.
